Measurements as given in ChEMBL document CHEMBL1127059, “Synthesis and antiviral activity of 5'-deoxypyrazofurin” (J Med Chem, 1993).
≈ marks a conversion by molar mass, not a printed value.

Tests used:
[1] = tested on: HEL; experiment: Tested for inhibitory effect on DNA virus CMV (Davis) in HEL cell line; type: functional, cell-based; conditions: Homo sapiens
[2] = tested on: MT4; experiment: cells; conditions: Homo sapiens
[3] = tested on: HEL; type: functional, cell-based; conditions: Homo sapiens
[4] = tested on: HeLa; experiment: Tested for inhibitory effect on RNA virus Polio-1 in HeLa cell line; type: functional, cell-based; conditions: Homo sapiens
[5] = tested on: Vero; experiment: Tested for inhibitory effect on RNA virus SV in Vero cell line; type: functional, cell-based; conditions: Chlorocebus sabaeus
[6] = tested on: Vero; experiment: Tested for inhibitory effect on RNA virus SFV in Vero cell line; type: functional, cell-based; conditions: Chlorocebus sabaeus
[7] = tested on: Vero; experiment: Tested for inhibitory effect on RNA virus TV in Vero cell line; type: functional, cell-based; conditions: Chlorocebus sabaeus
[8] = tested on: Vero; experiment: Tested for inhibitory effect on RNA virus Reo-1 in Vero cell line; type: functional, cell-based; conditions: Chlorocebus sabaeus
[9] = tested on: Vero; experiment: Tested for inhibitory effect on RNA virus Coxsackie B4 in Vero cell line; type: functional, cell-based; conditions: Chlorocebus sabaeus
[10] = tested on: ESM; experiment: Tested for inhibitory effect on DNA virus HSV-2 (G) in ESM cell line; type: functional, cell-based; conditions: Homo sapiens
[11] = tested on: HeLa; experiment: Tested for inhibitory effect on RNA virus RSV in HeLa cell line; type: functional, cell-based; conditions: Homo sapiens
[12] = tested on: ESM; experiment: Tested for inhibitory effect on DNA virus TK-HSV-1(VMW 1837) in ESM cell line; type: functional, cell-based; conditions: Homo sapiens
[13] = tested on: Vero; experiment: Tested for inhibitory effect on RNA virus JV in Vero cell line; type: functional, cell-based; conditions: Chlorocebus sabaeus
[14] = tested on: FM3A; type: functional, cell-based; conditions: Mus musculus
[15] = tested on: ESM; experiment: Tested for inhibitory effect on DNA virus TK-HSV-1 (B2006) in ESM cell line; type: functional, cell-based; conditions: Homo sapiens
[16] = tested on: MDCK; experiment: Tested for inhibitory effect on RNA virus Influenza B in MDCK cell line; type: functional, cell-based; conditions: Canis lupus familiaris
[17] = tested on: Vero; experiment: Tested for inhibitory effect on RNA virus PV-3 in Vero cell line; type: functional, cell-based; conditions: Chlorocebus sabaeus
[18] = tested on: HeLa; experiment: Tested for inhibitory effect on RNA virus VSV in HeLa cell line; type: functional, cell-based; conditions: Homo sapiens
[19] = tested on: MDCK; experiment: Tested for inhibitory effect on RNA virus Influenza A in MDCK cell line; type: functional, cell-based; conditions: Canis lupus familiaris
[20] = tested on: CCRF-CEM; type: functional, cell-based; conditions: Homo sapiens
[21] = tested on: MT4; experiment: Tested for inhibitory effect on RNA virus HIV-1 in MT-4 cell line; type: functional, cell-based; conditions: Homo sapiens
[22] = tested on: MT4; experiment: Tested for inhibitory effect on RNA virus HIV-2 in MT-4 cell line; type: functional, cell-based; conditions: Homo sapiens
[23] = tested on: ESM; type: functional, cell-based; conditions: Homo sapiens
[24] = tested on: ESM; experiment: Tested for inhibitory effect on DNA virus VV in ESM cell line; type: functional, cell-based; conditions: Homo sapiens
[25] = tested on: ESM; experiment: Tested for inhibitory effect on DNA virus HSV-1(KOS) in ESM cell line; type: functional, cell-based; conditions: Homo sapiens
[26] = tested on: MDCK; type: functional, cell-based; conditions: Canis lupus familiaris
[27] = tested on: L1210; type: functional, cell-based; conditions: Mus musculus
[28] = tested on: Vero; type: functional, cell-based; conditions: Chlorocebus sabaeus
[29] = tested on: HeLa; type: functional, cell-based; conditions: Homo sapiens
[30] = tested on: HEL; experiment: Tested for inhibitory effect on DNA virus VZV (YS) in HEL cell line; type: functional, cell-based; conditions: Homo sapiens
[31] = tested on: HEL; experiment: Tested for inhibitory effect on DNA virus TK-VZV (YS/R) in HEL cell line; type: functional, cell-based; conditions: Homo sapiens
[32] = tested on: HEL; experiment: Tested for inhibitory effect on DNA virus VZV (Oka) in HEL cell line; type: functional, cell-based; conditions: Homo sapiens
[33] = tested on: HEL; experiment: Tested for inhibitory effect on DNA virus TK-VZV (07/1) in HEL cell line; type: functional, cell-based; conditions: Homo sapiens
[34] = tested on: HEL; experiment: Tested for inhibitory effect on DNA virus CMV (AD-169) in HEL cell line; type: functional, cell-based; conditions: Homo sapiens
[35] = tested on: Vero; type: functional, cell-based; conditions: Chlorocebus sabaeus; remark: listed apart in the source

SMILES | IC50 [1] [µg/mL] | IC50 [2] [µg/mL] | IC50 [3] [µg/mL] | IC50 [4] [µg/mL] | IC50 [5] [µg/mL] | IC50 [6] [µg/mL] | IC50 [7] [µg/mL] | IC50 [8] [µg/mL] | IC50 [9] [µg/mL] | IC50 [10] [µg/mL] | IC50 [11] [µg/mL] | IC50 [12] [µg/mL] | IC50 [13] [µg/mL] | IC50 [14] [µg/mL] | IC50 [15] [µg/mL] | IC50 [16] [µg/mL] | IC50 [17] [µg/mL] | IC50 [18] [µg/mL] | IC50 [19] [µg/mL] | IC50 [20] [µg/mL] | further results
Nc1nc2c(ncn2COCCO)c(=O)[nH]1 [ACYCLOVIR] | 22 (≈ 97.7 µM) | > 100 | > 200 |  |  |  |  |  |  |  |  |  |  |  |  |  |  |  |  |  | 
NC(=O)c1ncn([C@@H]2O[C@H](CO)[C@@H](O)[C@H]2O)n1 [RIBAVIRIN] |  | 6.5 (≈ 26.6 µM) |  | 70 (≈ 287 µM) | ≥ 250 | ≥ 235 | 6.4 (≈ 26.2 µM) | 160 (≈ 655 µM) | 20 (≈ 81.9 µM) | > 300 | 4 (≈ 16.4 µM) | 110 (≈ 450 µM) | 5.2 (≈ 21.3 µM) | 3.9 (≈ 16 µM) | > 135 | 4 (≈ 16.4 µM) | 20 (≈ 81.9 µM) | 14 (≈ 57.3 µM) | 4 (≈ 16.4 µM) | 19 (≈ 77.8 µM) | IC50 [21]: > 5 µg/mL; IC50 [22]: > 5 µg/mL; IC50 [23]: ≥ 400 µg/mL; IC50 [24]: 45 µg/mL (≈ 184 µM); IC50 [25]: ≥ 350 µg/mL; IC50 [26]: > 200 µg/mL; IC50 [27]: 7.1 µg/mL (≈ 29.1 µM); IC50 [28]: > 400 µg/mL; IC50 [29]: ≥ 400 µg/mL
C[C@H]1OC(c2n[nH]c(C(N)=O)c2O)[C@H](O)[C@@H]1O (some centres undefined) | > 40 | 8.8 (≈ 36.2 µM) | > 50 | 55 (≈ 226 µM) | > 200 | > 200 | > 40 | > 175 | 70 (≈ 288 µM) | > 300 | 4 (≈ 16.4 µM) | 70 (≈ 288 µM) | > 40 | 39 (≈ 160 µM) | 55 (≈ 226 µM) | > 100 | > 200 | 14 (≈ 57.6 µM) | 20 (≈ 82.2 µM) | > 49 | IC50 [30]: 22 µg/mL (≈ 90.5 µM); IC50 [31]: > 40 µg/mL; IC50 [32]: 40 µg/mL (≈ 164 µM); IC50 [33]: > 40 µg/mL; IC50 [21]: > 4 µg/mL; IC50 [22]: > 4 µg/mL; IC50 [23]: ≥ 400 µg/mL; IC50 [24]: 5.5 µg/mL (≈ 22.6 µM); IC50 [25]: ≥ 350 µg/mL; IC50 [34]: > 40 µg/mL; IC50 [26]: 100 µg/mL (≈ 411 µM); IC50 [27]: 37 µg/mL (≈ 152 µM); IC50 [35]: > 400 µg/mL; IC50 [29]: ≥ 170 µg/mL
